Key:
[1] = system: Blood cancer cells RS4; 11; assay: CellTiter Glo test: growth inhibition of cells; type: cell-based; conditions: Homo sapiens, 11 cells, 72 h, cell viability
MDMX = target: T1, MDMX (Homo sapiens, UniProt O15151); assay: HTRF test: inhibition of MDMX-p53 protein binding
T1 sequence (O15151 2-134): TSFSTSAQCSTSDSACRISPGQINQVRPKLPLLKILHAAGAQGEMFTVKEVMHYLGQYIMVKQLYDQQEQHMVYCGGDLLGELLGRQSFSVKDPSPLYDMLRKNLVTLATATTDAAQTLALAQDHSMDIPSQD

MDM2 = MDM2 (Homo sapiens, UniProt Q00987); assay: HTRF test: inhibition of MDM2-p53 protein binding
Sequence of MDM2 (Q00987 2-138): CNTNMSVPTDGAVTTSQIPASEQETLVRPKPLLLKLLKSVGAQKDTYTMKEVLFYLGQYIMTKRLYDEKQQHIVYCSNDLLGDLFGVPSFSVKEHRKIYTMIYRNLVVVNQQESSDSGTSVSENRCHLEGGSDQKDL

IC50 [1]	IC50 (MDMX)	IC50 (MDM2)	SMILES
≤ 1000 nM	< 10 nM	< 10 nM	Cc1c(Cl)ccc2c(/C=C3\NC(=O)N(C(C(=O)NCC45CC(O)(C4)C5)c4ccc(F)c(F)c4)C3=O)c[nH]c12 (stereo not drawn) [Compound 68, (Z)-2-(4-((6-chloro-7-methyl-1H-indol-3-yl)methylene)-2,5-dioxoimidazolidin-1-yl)-2-(3,4-difluorophenyl)-N-((3-hydroxylbicyclo[1.1.1]pentan-1-yl)methyl)acetamide]
≤ 1000 nM	10 to 100 nM	10 to 100 nM	O=C1N/C(=C\c2c[nH]c3c(F)c(Cl)ccc23)C(=O)N1C(CO)c1ccc(Cl)cc1 (stereo not drawn) [Compound 69, (Z)-5-((6-chloro-7-fluoro-1H-indol-3-yl)methylene)-3-(1-(4-chlorophenyl)-2-hydroxyethyl)imidazolidine-2,4-dione]
≤ 1000 nM	10 to 100 nM	10 to 100 nM	Cc1c(Cl)ccc2c(/C=C3\NC(=O)N(C(CO)c4ccc(Cl)cc4)C3=O)c[nH]c12 (stereo not drawn) [Compound 70, (Z)-5-((6-chloro-7-methyl-1H-indol-3-yl)methylene)-3-(1-(4-chlorophenyl)-2-hydroxyethyl)imidazolidine-2,4-dione]
≤ 1000 nM	< 10 nM	< 10 nM	O=C(NCCO)C(c1ccc(F)c(F)c1)N1C(=O)N/C(=C\c2c[nH]c3c(F)c(Cl)ccc23)C1=O (stereo not drawn) [Compound 72, (Z)-2-(4-((6-chloro-7-fluoro-1H-indol-3-yl)methylene)-2,5-dioxoimidazolidin-1-yl)-2-(3,4-difluorophenyl)-N-(2-hydroxyethyl)acetamide]
≤ 1000 nM	10 to 100 nM	10 to 100 nM	O=C1N/C(=C\c2c[nH]c3c(F)c(Cl)ccc23)C(=O)N1C(CO)c1ccc(Cl)c(F)c1 (stereo not drawn) [Compound 77, (Z)-3-(1-(4-chloro-3-fluorophenyl)-2-hydroxyethyl)-5-((6-chloro-7-fluoro-1H-indol-3-yl)methylene)imidazolidine-2,4-dione]
≤ 1000 nM	10 to 100 nM	10 to 100 nM	Cc1c(Cl)ccc2c(/C=C3\NC(=O)N(C(CO)c4ccc(Cl)c(F)c4)C3=O)c[nH]c12 (stereo not drawn) [Compound 78, (Z)-3-(1-(4-chloro-3-fluorophenyl)-2-hydroxyethyl)-5-((6-chloro-7-methyl-1H-indol-3-yl)methylene)imidazolidine-2,4-dione]
≤ 1000 nM	10 to 100 nM	10 to 100 nM	O=C1N/C(=C\c2c[nH]c3cc(Cl)ccc23)C(=O)N1C(CO)c1ccc(Cl)c(F)c1 (stereo not drawn) [Compound 79, (Z)-5-((6-chloro-1H-indol-3-yl)methylene)-3-(1-(4-chloro-3-fluorophenyl)-2-hydroxyethyl)imidazolidine-2,4-dione]
≤ 1000 nM	< 10 nM	< 10 nM	O=C1N/C(=C\c2c[nH]c3c(F)c(Cl)ccc23)C(=O)N1C(CO)c1ccc(F)cc1 (stereo not drawn) [Compound 84, (Z)-5-((6-chloro-7-fluoro-1H-indol-3-yl)methylene)-3-(1-(4-fluorophenyl)-2-hydroxyethyl)imidazolidine-2,4-dione]
≤ 1000 nM	< 10 nM	< 10 nM	N#Cc1ccc(C(CO)N2C(=O)N/C(=C\c3c[nH]c4c(F)c(Cl)ccc34)C2=O)cc1 (stereo not drawn) [Compound 85, (Z)-4-(1-(4-((6-chloro-7-fluoro-1H-indol-3-yl)methylene)-2,5-dioxoimidazolidin-1-yl)-2-hydroxyethyl)benzonitrile]
≤ 1000 nM	10 to 100 nM	10 to 100 nM	O=C1N/C(=C\c2c[nH]c3c(F)c(Cl)ccc23)C(=O)N1C(CO)c1ccc(F)c(F)c1 (stereo not drawn) [Compound 86, (Z)-5-((6-chloro-7-fluoro-1H-indol-3-yl)methylene)-3-(1-(3,4-difluorophenyl)-2-hydroxyethyl)imidazolidine-2,4-dione]
≤ 1000 nM	< 10 nM	< 10 nM	Cc1c(Cl)ccc2c(/C=C3\NC(=O)N(C(CO)c4ccc(C#N)cc4)C3=O)c[nH]c12 (stereo not drawn) [Compound 88, (Z)-4-(1-(4-((6-chloro-7-methyl-1H-indol-3-yl)methylene)-2,5-dioxoimidazolidin-1-yl)-2-hydroxyethyl)benzonitrile]
